Results published in ChEMBL document CHEMBL4261615, “Design, synthesis, biological evaluation and cellular imaging of imidazo[4,5-b]pyridine derivatives as potent and selective TAM inhibitors” (Bioorg Med Chem, 2018).

Legend:
[1] = biological target: T1, Tyrosine-protein kinase receptor TYRO3 (Homo sapiens) (UniProt Q06418); experiment: Binding affinity to wild-type human partial length TYRO3 (S497 to T814 residues) expressed in bacterial expression system assessed as fraction of unbound kinase to substrate at 0.1 uM after 1 hr by KinomeScan assay
T1 sequence (whole entry): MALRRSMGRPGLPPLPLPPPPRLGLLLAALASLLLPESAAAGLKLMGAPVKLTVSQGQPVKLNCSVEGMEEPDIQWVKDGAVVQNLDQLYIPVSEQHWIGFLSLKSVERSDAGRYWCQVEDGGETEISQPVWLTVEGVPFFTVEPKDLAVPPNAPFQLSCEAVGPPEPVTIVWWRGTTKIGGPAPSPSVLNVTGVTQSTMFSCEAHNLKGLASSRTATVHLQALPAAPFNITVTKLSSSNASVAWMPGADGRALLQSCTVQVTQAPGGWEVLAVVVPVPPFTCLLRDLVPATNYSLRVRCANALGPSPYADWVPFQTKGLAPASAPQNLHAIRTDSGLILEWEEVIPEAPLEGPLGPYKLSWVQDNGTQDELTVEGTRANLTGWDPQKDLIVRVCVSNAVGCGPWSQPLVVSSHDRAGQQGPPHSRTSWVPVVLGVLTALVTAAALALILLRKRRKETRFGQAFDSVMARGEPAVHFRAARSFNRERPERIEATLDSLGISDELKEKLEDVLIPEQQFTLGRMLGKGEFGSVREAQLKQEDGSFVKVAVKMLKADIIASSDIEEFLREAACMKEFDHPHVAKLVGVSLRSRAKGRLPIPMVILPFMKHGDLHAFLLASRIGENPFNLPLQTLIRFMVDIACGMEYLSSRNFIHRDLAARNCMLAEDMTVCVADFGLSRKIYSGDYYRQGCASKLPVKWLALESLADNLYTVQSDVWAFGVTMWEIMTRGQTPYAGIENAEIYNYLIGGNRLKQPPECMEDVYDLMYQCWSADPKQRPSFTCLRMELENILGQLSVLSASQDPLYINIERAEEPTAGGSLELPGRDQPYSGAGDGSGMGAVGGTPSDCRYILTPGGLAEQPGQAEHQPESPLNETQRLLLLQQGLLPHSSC

[2] = biological target: T2, Tyrosine-protein kinase Mer (Homo sapiens) (UniProt Q12866); experiment: Binding affinity to wild-type partial length human MER (R557 to L884 residues) expressed in bacterial expression system assessed as fraction of unbound kinase to substrate at 1 uM after 1 hr by KinomeScan assay
T2 sequence (whole entry): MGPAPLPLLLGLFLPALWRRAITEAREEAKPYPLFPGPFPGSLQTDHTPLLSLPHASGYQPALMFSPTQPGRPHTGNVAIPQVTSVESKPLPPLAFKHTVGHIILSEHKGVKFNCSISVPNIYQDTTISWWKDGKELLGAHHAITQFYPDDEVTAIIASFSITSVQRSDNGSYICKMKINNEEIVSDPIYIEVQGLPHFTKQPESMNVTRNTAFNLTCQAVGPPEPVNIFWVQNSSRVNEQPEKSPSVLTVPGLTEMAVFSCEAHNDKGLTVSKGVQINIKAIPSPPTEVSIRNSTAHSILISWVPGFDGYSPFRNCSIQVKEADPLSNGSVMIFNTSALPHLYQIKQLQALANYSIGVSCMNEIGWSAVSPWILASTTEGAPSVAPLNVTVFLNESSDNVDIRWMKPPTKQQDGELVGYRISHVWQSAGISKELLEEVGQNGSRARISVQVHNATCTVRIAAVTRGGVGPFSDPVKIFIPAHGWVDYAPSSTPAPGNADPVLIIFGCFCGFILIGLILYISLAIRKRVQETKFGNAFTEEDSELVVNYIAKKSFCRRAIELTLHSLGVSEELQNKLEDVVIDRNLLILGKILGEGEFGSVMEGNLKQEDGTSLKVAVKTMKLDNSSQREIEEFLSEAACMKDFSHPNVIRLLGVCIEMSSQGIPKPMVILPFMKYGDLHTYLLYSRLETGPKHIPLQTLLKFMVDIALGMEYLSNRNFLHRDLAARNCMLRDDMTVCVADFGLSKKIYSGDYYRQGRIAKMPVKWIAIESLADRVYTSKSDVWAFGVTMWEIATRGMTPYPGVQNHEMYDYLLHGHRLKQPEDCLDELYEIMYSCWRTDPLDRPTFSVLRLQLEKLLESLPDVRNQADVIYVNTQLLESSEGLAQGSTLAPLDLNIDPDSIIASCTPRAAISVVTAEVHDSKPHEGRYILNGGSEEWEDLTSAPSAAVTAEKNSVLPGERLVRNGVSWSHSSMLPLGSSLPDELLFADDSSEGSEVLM

[3] = biological target: Fibroblast growth factor receptor 1 (Homo sapiens) (UniProt P11362); experiment: Binding affinity to wild-type human partial length FGFR1 (P357 to V669 residues) expressed in bacterial expression system assessed as fraction of unbound kinase to substrate at 10 uM after 1 hr by KinomeScan assay
Fibroblast growth factor receptor 1 (Homo sapiens), sequence (P11362 22-822 limits assumed): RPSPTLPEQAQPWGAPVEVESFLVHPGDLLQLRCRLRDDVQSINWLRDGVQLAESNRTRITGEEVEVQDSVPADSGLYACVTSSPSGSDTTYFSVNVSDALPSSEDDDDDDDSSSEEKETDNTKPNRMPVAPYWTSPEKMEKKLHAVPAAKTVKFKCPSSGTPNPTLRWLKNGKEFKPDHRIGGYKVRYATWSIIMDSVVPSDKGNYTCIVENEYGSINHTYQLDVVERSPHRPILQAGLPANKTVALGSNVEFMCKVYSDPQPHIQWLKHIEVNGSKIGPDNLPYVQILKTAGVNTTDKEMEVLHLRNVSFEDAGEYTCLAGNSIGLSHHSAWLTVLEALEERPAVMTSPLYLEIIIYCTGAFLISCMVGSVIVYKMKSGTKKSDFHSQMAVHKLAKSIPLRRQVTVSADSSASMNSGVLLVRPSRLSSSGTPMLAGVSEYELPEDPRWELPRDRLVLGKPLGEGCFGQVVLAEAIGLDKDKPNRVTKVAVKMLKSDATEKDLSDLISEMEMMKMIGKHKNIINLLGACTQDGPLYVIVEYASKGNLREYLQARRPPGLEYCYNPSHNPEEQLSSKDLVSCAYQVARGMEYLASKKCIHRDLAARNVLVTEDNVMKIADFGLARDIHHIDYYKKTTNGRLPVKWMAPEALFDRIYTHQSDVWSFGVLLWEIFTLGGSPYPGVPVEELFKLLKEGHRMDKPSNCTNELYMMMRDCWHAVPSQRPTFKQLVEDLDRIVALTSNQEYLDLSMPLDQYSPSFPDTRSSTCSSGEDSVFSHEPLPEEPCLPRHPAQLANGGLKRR

[4] = biological target: Tyrosine-protein kinase ABL1 (Homo sapiens) (UniProt P00519); experiment: Binding affinity to human wild type ABL1 (229 to 512 residues) expressed in mammalian expression system assessed as fraction of unbound kinase to substrate at 10 uM after 1 hr by KinomeScan assay
Tyrosine-protein kinase ABL1 (Homo sapiens), sequence (P00519 whole entry, the tested form may be a part): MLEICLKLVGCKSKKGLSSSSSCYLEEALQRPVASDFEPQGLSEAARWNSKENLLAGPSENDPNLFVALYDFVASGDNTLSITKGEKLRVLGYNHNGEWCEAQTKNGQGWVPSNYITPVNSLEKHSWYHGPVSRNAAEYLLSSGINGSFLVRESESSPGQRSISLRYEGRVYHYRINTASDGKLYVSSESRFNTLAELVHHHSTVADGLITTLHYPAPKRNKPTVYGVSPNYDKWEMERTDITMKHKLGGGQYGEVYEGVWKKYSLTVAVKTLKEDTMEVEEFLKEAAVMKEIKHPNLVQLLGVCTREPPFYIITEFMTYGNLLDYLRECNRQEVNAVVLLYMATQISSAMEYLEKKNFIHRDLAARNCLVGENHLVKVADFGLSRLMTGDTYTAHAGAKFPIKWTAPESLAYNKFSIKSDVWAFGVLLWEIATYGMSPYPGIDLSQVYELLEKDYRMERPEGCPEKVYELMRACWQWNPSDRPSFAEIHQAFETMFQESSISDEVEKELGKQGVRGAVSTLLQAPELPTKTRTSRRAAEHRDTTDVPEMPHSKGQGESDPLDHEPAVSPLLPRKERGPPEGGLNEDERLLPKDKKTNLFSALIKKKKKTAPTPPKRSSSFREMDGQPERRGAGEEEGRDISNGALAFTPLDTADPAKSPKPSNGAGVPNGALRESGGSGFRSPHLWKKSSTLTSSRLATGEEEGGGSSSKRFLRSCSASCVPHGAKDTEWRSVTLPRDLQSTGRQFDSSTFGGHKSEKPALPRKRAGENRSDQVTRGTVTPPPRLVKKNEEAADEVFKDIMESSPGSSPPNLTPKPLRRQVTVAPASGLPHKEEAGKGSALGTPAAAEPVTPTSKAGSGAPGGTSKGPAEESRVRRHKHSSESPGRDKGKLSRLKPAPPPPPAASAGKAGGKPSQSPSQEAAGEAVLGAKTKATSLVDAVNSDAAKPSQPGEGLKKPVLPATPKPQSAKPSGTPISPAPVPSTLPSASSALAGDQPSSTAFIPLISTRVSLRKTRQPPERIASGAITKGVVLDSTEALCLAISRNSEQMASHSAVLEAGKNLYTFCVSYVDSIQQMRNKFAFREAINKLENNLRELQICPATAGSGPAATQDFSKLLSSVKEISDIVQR

[5] = biological target: Fibroblast growth factor receptor 1 (Homo sapiens) (UniProt P11362); experiment: Binding affinity to wild-type human partial length FGFR1 (P357 to V669 residues) expressed in bacterial expression system assessed as fraction of unbound kinase to substrate at 0.1 uM after 1 hr by KinomeScan assay
[6] = biological target: T2, Tyrosine-protein kinase Mer (Homo sapiens); experiment: Binding affinity to wild-type partial length human MER (R557 to L884 residues) expressed in bacterial expression system assessed as fraction of unbound kinase to substrate at 0.1 uM after 1 hr by KinomeScan assay
[7] = biological target: T3, Aurora kinase A (Homo sapiens) (UniProt O14965); experiment: Binding affinity to wild-type human partial length AURKA (E122 to K401 residues) expressed in mammalian expression system assessed as fraction of unbound kinase to substrate at 0.1 uM after 1 hr by KinomeScan assay
T3 sequence (whole entry): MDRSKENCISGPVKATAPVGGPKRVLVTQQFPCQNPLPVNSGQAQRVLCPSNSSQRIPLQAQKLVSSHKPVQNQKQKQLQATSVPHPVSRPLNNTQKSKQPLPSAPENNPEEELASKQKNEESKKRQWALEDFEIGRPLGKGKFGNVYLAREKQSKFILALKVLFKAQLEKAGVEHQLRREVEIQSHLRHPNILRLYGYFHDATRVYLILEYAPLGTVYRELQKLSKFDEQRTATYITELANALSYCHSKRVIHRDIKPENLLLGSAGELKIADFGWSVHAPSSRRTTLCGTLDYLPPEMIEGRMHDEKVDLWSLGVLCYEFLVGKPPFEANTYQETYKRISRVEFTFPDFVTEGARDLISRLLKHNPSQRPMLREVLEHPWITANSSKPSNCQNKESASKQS

[8] = biological target: Glycogen synthase kinase-3 beta (Homo sapiens) (UniProt P49841); experiment: Binding affinity to full length wild type human GSK3beta (M1 to T433 residues) expressed in mammalian expression system assessed as fraction of unbound kinase to substrate at 0.1 uM after 1 hr by KinomeScan assay
Glycogen synthase kinase-3 beta (Homo sapiens), sequence (P49841 whole entry, looked up, the tested form may be a part): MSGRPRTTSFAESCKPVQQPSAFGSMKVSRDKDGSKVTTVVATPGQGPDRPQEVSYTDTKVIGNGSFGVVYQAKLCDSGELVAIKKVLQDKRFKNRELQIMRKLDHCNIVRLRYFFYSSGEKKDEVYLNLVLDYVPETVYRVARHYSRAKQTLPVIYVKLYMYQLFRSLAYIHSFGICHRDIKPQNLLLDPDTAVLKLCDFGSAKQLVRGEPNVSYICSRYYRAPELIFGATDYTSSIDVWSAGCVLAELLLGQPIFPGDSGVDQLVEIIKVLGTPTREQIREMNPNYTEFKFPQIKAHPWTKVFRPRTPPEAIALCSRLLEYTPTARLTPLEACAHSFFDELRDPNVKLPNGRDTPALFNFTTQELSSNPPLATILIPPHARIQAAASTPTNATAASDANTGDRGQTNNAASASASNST

Row | SMILES | Activity [1] [%] | Activity [2] [%] | Activity [3] [%] | Activity [4] [%] | Activity [5] [%] | Activity [6] [%] | Activity [7] [%] | Activity [8] [%]
1 | O=C(Nc1ccc(Oc2ccnc3[nH]cnc23)c(F)c1)c1cccn(-c2ccc(F)cc2)c1=O | 17 | 99.3 | 6 | 34 | 1 | 87 | 5 | 0
2 | CC(C)c1nc2c(Oc3ccc(NC(=O)c4cccn(-c5ccc(F)cc5)c4=O)cc3F)ccnc2[nH]1 | 1 | 99.6 | 1 | 17 | 7 | 92.3 | 1 | 0
3 | O=C(Nc1ccc(Oc2c(Br)cnc3[nH]cnc23)c(F)c1)c1cccn(-c2ccc(F)cc2)c1=O | 15 | 60 | 11 | 0 | 7 | 4 | 7 | 0
4 | Cc1cnc2[nH]cnc2c1Oc1ccc(NC(=O)c2cccn(-c3ccc(F)cc3)c2=O)cc1F | 0 | 78 | 15 | 3 | 8 | 17 | 1 | 2
